Measured values as given in BindingDB's records for doi:10.1016/j.ejmech.2023.115347 (Johann Wolfgang Goethe University, 2023).

Target: Ribosomal protein S6 kinase alpha-1 (Homo sapiens) (UniProt Q15418)
Experiment: Inhibition of full length NanoLuc fused RSK1b (unknown origin) transfected in HEK293T cells using NanoBRET NanoGlo substrate incubated for 2 hrs in presence of tracer by NanoBRET assay

Chain of Ribosomal protein S6 kinase alpha-1 (Homo sapiens) (Q15418 whole entry, looked up, the tested form may be a part): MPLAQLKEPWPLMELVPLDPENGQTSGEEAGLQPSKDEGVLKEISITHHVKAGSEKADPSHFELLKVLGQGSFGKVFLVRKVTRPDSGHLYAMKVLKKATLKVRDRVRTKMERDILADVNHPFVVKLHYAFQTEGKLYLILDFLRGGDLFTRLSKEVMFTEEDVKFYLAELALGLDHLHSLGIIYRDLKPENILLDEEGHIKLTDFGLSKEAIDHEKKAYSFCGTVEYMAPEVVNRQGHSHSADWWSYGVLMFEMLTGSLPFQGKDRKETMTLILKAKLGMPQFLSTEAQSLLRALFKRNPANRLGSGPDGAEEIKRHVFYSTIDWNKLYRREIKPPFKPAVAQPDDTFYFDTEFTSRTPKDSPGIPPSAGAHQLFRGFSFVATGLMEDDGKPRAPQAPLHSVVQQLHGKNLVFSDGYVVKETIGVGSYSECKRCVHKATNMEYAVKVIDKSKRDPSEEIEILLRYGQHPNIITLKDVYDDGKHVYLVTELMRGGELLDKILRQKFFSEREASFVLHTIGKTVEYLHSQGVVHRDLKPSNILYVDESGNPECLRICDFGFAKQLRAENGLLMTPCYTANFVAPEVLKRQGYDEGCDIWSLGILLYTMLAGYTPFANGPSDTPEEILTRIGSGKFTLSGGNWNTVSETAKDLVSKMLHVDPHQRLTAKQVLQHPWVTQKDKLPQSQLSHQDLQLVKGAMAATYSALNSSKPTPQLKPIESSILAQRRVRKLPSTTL

With `CNc1ncc2cc(-c3cc(F)ccc3F)c(=O)n(CCCCN)c2n1` as the compound, how does the IC50 read?
The IC50 was > 45 µM.
